The values below come from patent publication US4014909A, “Esters of 21-thiol steroids” (priority 1974, dated 1977).

Data set [1] relates to liver, kidneys, spleen, thymus, stomach. Format: in vivo, rat (Sprague-Dawley). As to conditions: strong dose (436 mg/kg s.c. daily), male rat; study broken off on the 14th day.
Data set [2] is described as follows: Hydro-mineral equilibrium: sodium excretion after 4 weeks treatment. Format: in vivo, rat (Sprague-Dawley). Particulars: male rat, 500 mg/kg s.c. On the procedure: (§1) The action on the endocrine glands and the genital tractus, and a possible ulcerogenic effect were investigated, together with the effects on the glucidic and proteic metabolisms, on the hydro-mineral equilibrium after long-term administration.
(§2) There were utilized groups of 10 male rats and ten female rats of Sprague-Dawley S.P.F. strain which have been given the products under study by sub-cateneous methods daily for four weeks.
(§3) The products were administered in suspension in 5 % carboxy-methyl-cellulose under a volume of 0.5 ml. per 100 grams of body weight, in three different doses, the animals of the reference lot receiving the same volume of the vehicle alone.
(§4) In order to confirm certain previous results of the pharmacological short-term study, there has furthermore been determined, for each lot of animals:
at the end of the treatment:
the sodium excretion in 5 hours
(§5) During the course of the long-term study, the JO 1016 was administered daily to the male and female rats in doses of 100 mg/kg, 250 mg/kg, 500 mg/kg by the sub-cutaneous route.

A short description of data set [3]: Action on the protein metabolism: weight increase of immature rats, 96 hours. Format: in vivo, rat (Wistar. The source says:
The action on the protein metabolism was examined by means of a test, the principle of which is as follows:
The administration of gluco-corticoids results in a disturbance of the protein metabolism, which is shown by an exaggerated protein catabolism resulting in shrinking of the tissues objectified by an inhibition of growth in weight in the young animal and a loss of body weight in the adult animal.
For this study, immature rats of Wistar strain were utilized, the initial weight of which was between 45 and 55 grams, which were distributed at random groups of 10.
The products under study were administered daily for 4 days. The animals were weighed daily during the 4 days of treatment and 24 hours after the last dose.
The products tested were administered either orally or by sub-cutaneous injection, in suspension in 5 % gum arabic for the oral route or in carboxy-methyl-cellulose at 5 % for the sub-cutaneous method, the animals of the reference group receiving the same volume of vehicle by the same method as the corresponding animals treated.
The average variation of the body weight during the 96 hours treatment was calculated for each group of animals.
The increase in weight of immature rats (45 to 55 grams) treated for 96 hours following the procedure (g) by JO 1016, by the oral or the sub-cutaneous routes (average weight at the end of the study, less the average weight at the beginning) are indicated in the following Table XVIII.

Data set [4] can be described thus: Body weight after long-term sub-cutaneous treatment. Format: in vivo, rat (Sprague-Dawley). As to conditions: 4 weeks. The protocol:
as §1, §2, §3, §4
The evolution of weight and the consumption of food during the treatment;
During the course of the long-term study, the JO 1016 was administered daily to the male and female rats in doses of 100 mg/kg, 250 mg/kg, 500 mg/kg by the sub-cutaneous route. […]

Data set [5] has as its system adrenal glands, gonads, seminal vesicles, uterine tubes. Description: Action on the endocrine glands and the genital tractus: organ weights and histology, long-term treatment. Format: in vivo, rat (Sprague-Dawley). Particulars: for Ovaries weight / Seminal vesicles weight / Testicles weight / Uterine tubes weight / Adrenal glands weight: 4 weeks, N.S.
Description: as §1
The repeated administration of corticoids may result in an inhibition of the secretion of the ante-hypophysiary hormone which is shown by a lowering of the effectiveness of the target-glands (example: adrenal-glandes) and indirectly of certain organs which are under the dependence of a hormone secretion (example: genital tractus).
These studies have been carried out for some of the products according to the invention after sub-chronic administration.
as §2, §3
At the end of this study there were extracted:
(2) the gonads (testicles or ovaries);
(3) the seminal vesicles or the uterine tubes;
The samples numbered (1), (2) and (3) were immediately weighed. All the samples were then fixed for histological examination in the Bouin-Holland fixator.
as §5
After a long-term treatment by the JO 1016, following the procedure (h), the average weights of the following organs: adrenal glandes, gonads, seminal vesicles, uterine tubes are indicated in the following Table XXII

The structures appear in SMILES notation. “Also recorded” adds a separate entry of the source.

On to `CC(=O)OCC(=O)[C@@]1(O)CC[C@H]2[C@@H]3CCC4=CC(=O)CC[C@]4(C)[C@H]3[C@@H](O)C[C@@]21C` [Hydrocortisone (acetate), Hydrocortisone acetate, reference compound], for which the Mortality result in data set [1] is “high mortality observed with the strong dose”.

Regarding `CC(C)(C)C(=O)SCC(=O)[C@@]1(O)CC[C@H]2[C@@H]3CCC4=CC(=O)CC[C@]4(C)[C@H]3[C@@H](O)C[C@@]21C` [JO 1016, Dihydroxy-11β, 17α thio-21 dioxo-3,20 pregnene-4-21 pivalate], in data set [2], the “Sodium excreted, average ± standard error” value was 1,41 ± 0,116 Meq. Further, the “Increase in weight of immature rats” value is 17 g in data set [3] (1 mg/rat/day, sub-cutaneous route); 14 g in data set [3] (3 mg/rat/day, oral route); 8 g in data set [3] (10 mg/rat/day (last line of Table XVIII (so in the source)), oral route); 11 g in data set [3] (10 mg/rat/day, oral route); 16 g in data set [3] (10 mg/rat/day, sub-cutaneous route); 13 g in data set [3] (30 mg/rat/day, oral route). In data set [3] (30 mg/rat/day, sub-cutaneous route), the “Increase in weight of immature rats” value is on record as 16 g. Besides, the “Body weight, average ± standard error” value in data set [4] (female rats, 100 mg/kg s.c.) was 219 ± 3.06 g; in data set [4] (female rats, 250 mg/kg s.c.), 216 ± 3.18 g; in data set [4] (female rats, 500 mg/kg s.c.), 198 ± 4.85 g; in data set [4] (male rats, 100 mg/kg s.c.), 299 ± 45.2 g; in data set [4] (male rats, 250 mg/kg s.c.), 289 ± 7.7 g; in data set [4] (male rats, 500 mg/kg s.c.), 274 ± 2,5 g. Moreover, the “Body weight, percentages of variation and probabilities” value is recorded as “N.S” in data set [4] (female rats, 100 mg/kg s.c.); “N.S” in data set [4] (female rats, 250 mg/kg s.c.); “N.S” in data set [4] (male rats, 100 mg/kg s.c.); “N.S” in data set [4] (male rats, 250 mg/kg s.c.). Also, the Ovaries weight worked out at 38.4 mg in data set [5] (100 mg/kg s.c.), 38.3 mg in data set [5] (250 mg/kg s.c.) and 39.3 mg in data set [5] (500 mg/kg s.c.). Besides, the Seminal vesicles weight in data set [5] (100 mg/kg s.c.) is reported as 328.0 mg; in data set [5] (250 mg/kg s.c.) it was 296.0 mg; in data set [5] (500 mg/kg s.c.) it was 274.6 mg. For the same compound, the Testicles weight in data set [5] (100 mg/kg s.c.) was found to be 1.143 g; in data set [5] (250 mg/kg s.c.) it was 1.144 g; in data set [5] (500 mg/kg s.c.) it was 1.207 g. Moreover, the Uterine tubes weight in data set [5] (100 mg/kg s.c.) is listed as 211.8 mg; in data set [5] (250 mg/kg s.c.) it was 184.7 mg; in data set [5] (500 mg/kg s.c.), 165.4 mg. Also, the Adrenal glands weight in data set [5] (female rats, 100 mg/kg s.c.) is recorded as 26.7 mg; in data set [5] (female rats, 250 mg/kg s.c.), 24,5 mg; in data set [5] (female rats, 500 mg/kg s.c.) it was 27,0 mg; in data set [5] (male rats, 100 mg/kg s.c.) it was 14.9 mg; in data set [5] (male rats, 250 mg/kg s.c.), 12,3 mg; in data set [5] (male rats, 500 mg/kg s.c.), 13.5 mg. The “Histological examination of organs” value in data set [5] (long-term s.c. treatment) is “has not furthermore brought into evidence any alteration of their structure; also recorded: neither atrophy nor surrenal hypertrophy; also recorded: nor modification of the functional aspect of the male and female genital organs”.
